Tests used:
[1] = cited from earlier work
male rats = assay: Blood pressure after i.v. injection in urethane-anesthetized male rats; assay type: in vivo, rat; details: 20 meq/Kg; for Arterial pressure: i.v. right femoral vein, basal 80-130 mmHg; for Pressure Δ: i.v., versus basal 80-130 mmHg
Method: Typically, male rats weighing about 200-300 g, anesthetized with urethane (1.75 g/Kg i.p.), were employed in these tests and the hexapeptide [drawing 9] was administered by i.v. injection in the right femoral vein at a dosage of 20 meq/Kg body weight.
Blood pressure was recorded at different times following the injection.
The basal values were on the average 80-130 mmHg.

For “Arg-Arg-Pro-Tyr-Ile-Leu (RRPYIL; printed: Arg-Arg-Pro-Tyr-Ile-Leu) [C-terminal hexapeptide, C-terminal hexapeptide fragment of NT]”, the “in vivo biological activity relative to NT” value [1] is listed as “much lower than NT itself”.
In the case of “Arginyl-arginyl-prolyl-tyrosyl-gem diamino-isoleucyl-(R,S)malonyl-leucine [Example 1]”, the Arterial pressure (male rats; 30' from admin.) is reported as 80-125 mmHg, the “Pressure Δ” value (male rats; 30' from admin.) is reported as 0-5 and the Arterial pressure (male rats; 1 h from admin.) is reported as 75-125 mmHg. The “Pressure Δ” value (male rats; 1 h from admin.) was 5-5, the Arterial pressure (male rats; 2 h from admin.) was 75-125 mmHg and the “Pressure Δ” value (male rats; 2 h from admin.) was 5-5. For the same substance, the Arterial pressure (male rats; 2.5 h from admin.) was 75-120 mmHg, the “Pressure Δ” value (male rats; 2.5 h from admin.) was 5-10 and the Arterial pressure (male rats; 3.5 h from admin.) was 75-120 mmHg. For the same substance, the “Pressure Δ” value (male rats; 3.5 h from admin.) was 5-10, the Arterial pressure (male rats; 4.5 h from admin.) was 70-110 mmHg and the “Pressure Δ” value (male rats; 4.5 h from admin.) was 10-20. The Arterial pressure (male rats; 5 h from admin.) was 70-110 mmHg, the “Pressure Δ” value (male rats; 5 h from admin.) was 10-20 and the Arterial pressure (male rats; 6 h from admin.) was 65-105 mmHg. The “Pressure Δ” value (male rats; 6 h from admin.) was 15-25.

From patent US4732890A, “Retro-inverso hexapeptide neurotensin analogs, process for their preparation and pharmaceutical compositions containing them” (Eniricerche S.p.A., priority 1985, dated 1988)
